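Results reflect a 48-hour exposure of cells in 96-well plates to compound at five concentrations. GI50 is the concentration that inhibits growth by half.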 Calls of active or inactive are those of the source. No stated cut-off is given here; in the data, active = GI50 up to about 1.1 µM and inactive = higher.
Columns and labels:
Assay in all cases: DTP human tumour cell line panel, 48 h
SN12C = system: SN12C
SK-MEL-5 = system: SK-MEL-5
786-0 = system: 786-0
HCC 2998 = system: HCC 2998
HCT-15 = system: HCT-15
SK-OV-3 = system: SK-OV-3
SF-268 = system: SF-268
MOLT-4 = system: MOLT-4
U-251 = system: U-251
NCI/ADR-RES = system: NCI/ADR-RES
NCI-H23 = system: NCI-H23
COLO 205 = system: COLO 205
SNB-19 = system: SNB-19
OVCAR-8 = system: OVCAR-8
CAKI-1 = system: CAKI-1
UACC-257 = system: UACC-257
SK-MEL-28 = system: SK-MEL-28
RPMI-8226 = system: RPMI-8226
CCRF-CEM = system: CCRF-CEM
SR = system: SR

SMILES | GI50 (SN12C) | GI50 (SK-MEL-5) | GI50 (786-0) | GI50 (HCC 2998) | GI50 (HCT-15) | GI50 (SK-OV-3) | GI50 (SF-268) | GI50 (MOLT-4) | GI50 (U-251) | GI50 (NCI/ADR-RES) | GI50 (NCI-H23) | GI50 (COLO 205) | GI50 (SNB-19) | GI50 (OVCAR-8) | GI50 (CAKI-1) | GI50 (UACC-257) | GI50 (SK-MEL-28) | GI50 (RPMI-8226) | GI50 (CCRF-CEM) | GI50 (SR)
OCCSCc1cc(Cl)cc(Cl)c1O | > 100 µM (inactive) | > 100 µM (inactive) | > 100 µM (inactive) | > 100 µM (inactive) | > 100 µM | > 100 µM (inactive) | > 100 µM (inactive) | > 100 µM (inactive) | > 100 µM (inactive) | > 100 µM (inactive) | > 100 µM (inactive) | > 100 µM (inactive) | > 100 µM (inactive) | > 100 µM (inactive) | > 100 µM (inactive) | > 100 µM (inactive) | > 100 µM (inactive) | > 100 µM (inactive) | > 100 µM (inactive) | –
CNC(=S)N/N=C(\C(=N/NC(=S)NC)c1ccccn1)c1ccccn1 | 4.08 µM (inactive) | 1.53 µM (inactive) | 5.71 µM (inactive) | > 23 µM (inactive) | 0.232 µM | 0.726 µM (active) | 1.19 µM (inactive) | – | 0.289 µM (active) | < 0.02 µM (active) | 9.12 µM (inactive) | 1.41 µM (inactive) | 10.3 µM (inactive) | 0.687 µM (active) | 5.04 µM (inactive) | 1.82 µM (inactive) | 29 µM (inactive) | 32.8 µM (inactive) | – | –
COC1OC(C)C2OC(C)(C)OC2C1OC(C)=O (stereo not given) | > 100 µM (inactive) | > 100 µM (inactive) | > 100 µM (inactive) | > 100 µM (inactive) | > 100 µM | – | > 100 µM (inactive) | > 100 µM (inactive) | > 100 µM (inactive) | – | > 100 µM (inactive) | > 100 µM (inactive) | > 100 µM (inactive) | > 100 µM (inactive) | > 100 µM (inactive) | > 100 µM (inactive) | > 100 µM (inactive) | > 100 µM (inactive) | > 100 µM (inactive) | > 100 µM (inactive)
C[C@]12CC[C@H](OCCC#N)CC1=CC[C@@H]1C2CC[C@]2(C)/C(=N/OCCC#N)CCC12 (stereo not given in full) | > 100 µM (inactive) | > 21 µM (inactive) | 33 µM (inactive) | > 100 µM (inactive) | > 100 µM | > 63 µM (inactive) | > 100 µM (inactive) | > 100 µM (inactive) | 24.8 µM (inactive) | – | 10.8 µM (inactive) | > 100 µM (inactive) | 36.6 µM (inactive) | > 92.7 µM (inactive) | 26.1 µM (inactive) | 6.62 µM (inactive) | > 74.6 µM (inactive) | > 100 µM (inactive) | > 100 µM (inactive) | 4.43 µM (inactive)
COC(=O)c1c(O)c2c(c3c1OC(C)(C)CC3)OC(C)(C)CC2 | 16 µM (inactive) | 15 µM (inactive) | 16.8 µM (inactive) | 16.4 µM (inactive) | 21.2 µM | 27.3 µM (inactive) | 22.9 µM (inactive) | 22.7 µM (inactive) | 15.2 µM (inactive) | 22.1 µM (inactive) | 20.1 µM (inactive) | 15 µM (inactive) | 18.2 µM (inactive) | 17.6 µM (inactive) | 21.8 µM (inactive) | 20.4 µM (inactive) | 26.6 µM (inactive) | – | 23 µM (inactive) | –
N#CC(c1cc(Cl)ncn1)c1nc2ccccc2s1 (stereo not given) | 2.61 µM (inactive) | 16.4 µM (inactive) | 3.77 µM (inactive) | – | 3.74 µM | 14.8 µM (inactive) | 5.25 µM (inactive) | 3.42 µM (inactive) | 4.02 µM (inactive) | 3.29 µM (inactive) | 5.04 µM (inactive) | 14.8 µM (inactive) | 5.93 µM (inactive) | 3.85 µM (inactive) | 18.6 µM (inactive) | 10.5 µM (inactive) | 19.3 µM (inactive) | 2.49 µM (inactive) | – | –
CC(=O)OC[C@@H]1[C@H]2CC(=O)O[C@H]2C[C@H]1OC(C)=O | > 100 µM (inactive) | > 100 µM (inactive) | > 100 µM (inactive) | > 100 µM (inactive) | > 100 µM | > 100 µM (inactive) | > 100 µM (inactive) | > 100 µM (inactive) | > 100 µM (inactive) | – | – | 24.7 µM (inactive) | > 100 µM (inactive) | > 100 µM (inactive) | > 100 µM (inactive) | > 100 µM (inactive) | > 100 µM (inactive) | > 100 µM (inactive) | > 100 µM (inactive) | > 100 µM (inactive)
C=CCC1(CN(C)C)CC/C(=C\c2ccc(Cl)cc2)C1=O (stereo not given) | 70.1 µM (inactive) | 28.8 µM (inactive) | 38.1 µM (inactive) | 33.1 µM (inactive) | 25.1 µM | > 100 µM (inactive) | 37.8 µM (inactive) | 17.9 µM (inactive) | 38.1 µM (inactive) | – | 47.5 µM (inactive) | 27.2 µM (inactive) | 77.3 µM (inactive) | 42.3 µM (inactive) | > 100 µM (inactive) | 25.5 µM (inactive) | > 83.2 µM (inactive) | 17 µM (inactive) | 15.9 µM (inactive) | 0.0973 µM (active)
CN(C)CCNC(=O)c1cccc2cc3ccc4ccccc4c3nc12 | 0.0531 µM (active) | 0.137 µM (active) | 0.0824 µM (active) | 0.104 µM (active) | 0.0684 µM | 0.121 µM (active) | 0.0953 µM (active) | 0.0156 µM (active) | 0.0755 µM (active) | – | 0.0851 µM (active) | 0.0414 µM (active) | 0.0942 µM (active) | 0.0594 µM (active) | 0.0413 µM (active) | 0.177 µM (active) | 0.198 µM (active) | 0.145 µM (active) | 0.0406 µM (active) | 0.0246 µM (active)
CO[C@@](c1ccccc1)(c1nc(C#N)c(N)o1)C(F)(F)F | > 100 µM (inactive) | > 100 µM (inactive) | > 100 µM (inactive) | > 100 µM (inactive) | 85.9 µM | > 100 µM (inactive) | – | 82.2 µM (inactive) | > 100 µM (inactive) | > 100 µM (inactive) | > 100 µM (inactive) | > 100 µM (inactive) | > 100 µM (inactive) | > 100 µM (inactive) | > 100 µM (inactive) | 85.5 µM (inactive) | > 100 µM (inactive) | 36.3 µM (inactive) | 26.5 µM (inactive) | –
Cc1ccc(S(=O)(=O)N/N=C(\c2nc3ccc([N+](=O)[O-])cc3nc2O)C(O)c2ccccc2Cl)cc1 (stereo not given) | > 100 µM (inactive) | 55.3 µM (inactive) | > 100 µM (inactive) | > 100 µM (inactive) | 78 µM | > 100 µM (inactive) | > 100 µM (inactive) | > 100 µM (inactive) | > 100 µM (inactive) | – | > 100 µM (inactive) | > 100 µM (inactive) | > 100 µM (inactive) | > 100 µM (inactive) | > 100 µM (inactive) | > 100 µM (inactive) | > 100 µM (inactive) | 61.1 µM (inactive) | 17.5 µM (inactive) | > 100 µM (inactive)
O=C1c2ccccc2-c2c1c(-c1ccc(F)cc1)nc1ccc3ccccc3c21 | > 100 µM (inactive) | – | > 100 µM (inactive) | > 100 µM (inactive) | > 100 µM | > 100 µM (inactive) | > 100 µM (inactive) | > 100 µM (inactive) | > 100 µM (inactive) | > 100 µM (inactive) | > 100 µM (inactive) | > 100 µM (inactive) | > 100 µM (inactive) | > 100 µM (inactive) | > 100 µM (inactive) | > 100 µM (inactive) | > 100 µM (inactive) | > 100 µM (inactive) | > 100 µM (inactive) | –
Cc1ccc(/C=N/NS(=O)(=O)c2ccccc2)cc1 | > 100 µM (inactive) | > 100 µM (inactive) | > 100 µM (inactive) | > 100 µM (inactive) | > 100 µM | > 100 µM (inactive) | > 100 µM (inactive) | > 100 µM (inactive) | > 100 µM (inactive) | – | > 100 µM (inactive) | > 100 µM (inactive) | – | > 100 µM (inactive) | > 100 µM (inactive) | > 100 µM (inactive) | > 100 µM (inactive) | > 100 µM (inactive) | > 100 µM (inactive) | > 100 µM (inactive)
C/C=C1\CN2CCc3c([nH]c4ccccc34)C2CC1C(=O)OC (stereo not given) | > 322 µM (inactive) | > 322 µM (inactive) | > 322 µM (inactive) | > 322 µM (inactive) | > 322 µM | > 322 µM (inactive) | > 322 µM (inactive) | > 322 µM (inactive) | > 322 µM (inactive) | – | > 322 µM (inactive) | > 322 µM (inactive) | > 322 µM (inactive) | > 322 µM (inactive) | > 322 µM (inactive) | > 322 µM (inactive) | > 322 µM (inactive) | > 322 µM (inactive) | > 322 µM (inactive) | > 322 µM (inactive)
COc1ccc2c(c1)c(=O)c1c(NCCN(C)C)ccc3nnn2c31 | 2.49 µM (inactive) | 3.17 µM (inactive) | 1.71 µM (inactive) | 2.76 µM (inactive) | 3.82 µM | 4.01 µM (inactive) | 2.13 µM (inactive) | 0.321 µM (active) | 3.08 µM (inactive) | – | 2.68 µM (inactive) | 1.36 µM (inactive) | 3.52 µM (inactive) | 1.04 µM (active) | 3.01 µM (inactive) | 4.69 µM (inactive) | 5.78 µM (inactive) | 1.65 µM (inactive) | 0.918 µM (active) | 0.493 µM (active)
